From patent US6916915B1, “Stressor regulated genes” (Duke University, priority 1998, dated 2005) come the findings set out here.

This assay deals with C. elegans. The assay is described as follows: mRNA differential display of control and cadmium-treated nematodes. It is filed as in vivo, Caenorhabditis elegans. To be noted: cadmium-treated C. elegans cDNA compared to the control. The method, then:
Growth and isolation of C. elegans—The N2 strain of C. elegans was grown in liquid S medium (0.1M NaCl, 50 mM potassium phosphate, pH 6.0, 5 μg/ml cholesterol, 10 mM potassium citrate, 3 mM CaCl2, 3 mM MgCl2, 50 μM EDTA, 25 μM FeSO4, 10 μM MnCl2, 10 μM ZnSO4 and 1 μM CuSO4) using E. coli OP50 as a food source (Brenner, S. (1974) Genetics 77, 71-94). In experiments where nematodes were exposed to cadmium, the medium was supplemented with 100 μM CdCl2 (Freedman, J. H. et al. (1993) J. Biol. Chem. 268, 2554-2564). C. elegans were grown in the presence of metal for 8 h or 24 h at ˜20° C. Nematodes were then collected following centrifugation at 800×g for 5 min. Pellets were suspended in 5 mM NaCl containing 35% sucrose (final concentration) and viable nematodes were collected from the top of the solution following centrifugation at 1000×g for 5 min at 4° C. Nematodes were then washed three times by suspension in M9 buffer (22 mM KH2PO4, 42 mM Na2HPO4, 85 mM NaCl, 1 mM MgSO4) followed by sedimentation at 800×g. Washed nematode pellets were finally suspended in a small volume of M9 buffer, rapidly frozen in liquid nitrogen and stored at −80° C.
RNA isolation—Total RNA was isolated from mix-stage populations of C. elegans exposed to 100 μM CdCl2 for 8 h and 24 h and control, non-exposed nematodes. […]

Take `[Cl][Cd][Cl]` [cadmium, CdCl2]: the “band intensity of VL9 cDNA in differential display” value was “decreased band intensity”.
